Assays:
JNK-3 = JNK-3 (Homo sapiens, UniProt P53779); assay: JNK-3 assay (HTRF, JNK-3/GST-ATF2); type: biochemical; settings: ATP 15 μM, 37° C., 20 minutes
Method: The assay is carried out on a CyBio pipetter system in a 384-hole plate format. The assay contains 10 μL of sample (extract or pure substance, for example a compound of formula (II) or of formula (III)) in 3% DMSO, 10 μL of an enzyme/substrate mixture (JNK-3/GST-ATF2) and 10 μL of ATP in a final volume of 30 μL. After incubation at 37° C. for 20 minutes, 50 μL of the HTRF antibody mixture (XL665-anti-GST/(Eu)cryptate anti-P-ATF2) are added. After 120 minutes at room temperature, the signal emission of the energy transfer and of europium at 665 and 615 nm is measured after the samples have been stimulated at 340 nm in a Victor^2 (WALLAC).
Buffer I for the Dilution of JNK3, GST-ATF2, ATP:
Buffer II for the Dilution of the HTRF Reagents:
Each plate contains 16 positive controls (maximum energy transfer, buffer I instead of samples), 8 blank controls (minimum energy transfer, buffer II instead of ATP) and 8 holes which contain EDTA 200 μM.
The results are calculated as follows:
Firstly, the signal ratio=(intensity (665 nm)/intensity (615 nm)) is determined. A blank correction is then made using the following formula:
delta F(%)=[(ratio (sample)−ratio(minimum))/(ratio (minimum))]×100
The activity of the samples is then calculated in the following manner:
Inhibition (%)=100×[1−(delta F(sample)/delta F(maximum))]

hCK1ε = hCK1ε (Homo sapiens, UniProt P49674); assay: hCK1ε assay (33P-ATP, casein-coated plates); type: biochemical; settings: 0.4 μM cold ATP, 37° C., one hour
hCK1ε, sequence (P49674 whole entry): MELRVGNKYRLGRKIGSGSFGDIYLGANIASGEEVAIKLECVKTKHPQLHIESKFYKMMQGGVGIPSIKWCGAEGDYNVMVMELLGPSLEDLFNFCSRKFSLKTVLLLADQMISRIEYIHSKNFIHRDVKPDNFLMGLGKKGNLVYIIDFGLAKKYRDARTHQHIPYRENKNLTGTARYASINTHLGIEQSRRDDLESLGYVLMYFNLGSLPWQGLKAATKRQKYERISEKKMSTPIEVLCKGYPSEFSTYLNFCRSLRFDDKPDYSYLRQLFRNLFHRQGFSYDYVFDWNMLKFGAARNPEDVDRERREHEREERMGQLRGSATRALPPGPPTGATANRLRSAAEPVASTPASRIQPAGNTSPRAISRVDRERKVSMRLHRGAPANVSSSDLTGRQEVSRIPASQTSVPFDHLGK
Method: The assay is carried out in a Jobi-Well (CyBio) and Biomek 2000 pipetter system in the 384-hole plate format. The 384-hole plates are coated with 50 μL per well of a casein solution of the concentration 100 μg/mL in coating buffer (corresponds to 5 μg of casein per well, casein Sigma) and stored overnight at 4° C. Washing four times with 90 μL of wash solution 1 (50 mM HEPES pH 7.4 and 150 mM NaCl) is then carried out. The reaction is carried out in a final volume of 50 μL. During the course of this, 10 μL of dilute natural substance extract in each case, for example a compound of formula (II) or a compound of formula (III), 20 μL of hCK1ε enzyme solution (corresponds to 29 ng of […] per well) and 20 μL of ATP solution (final concentration: 0.4 μCi of ^33P-γ-ATP radiolabeled (“hot”) and 0.4 μM of cold ATP per well) are pipetted onto the coated plates. The plates are then incubated at 37° C. for one hour. The plates are then washed four times with 75 μL of wash solution 2 (phosphoric acid, 3%) and measured for 30 seconds in a MicroBeta Trilux counter (WALLAC).
hCK1ε Enzyme Solution: 1.45 μg of Recombinant hCK1ε per mL of Kinase Buffer
ATP Solution: 20 μCi/mL of ^33P-γ-ATP and 1 μM of Cold ATP […]
The inhibition of a sample can be calculated according to the following formula: […]

JNK-3, sequence (P53779 whole entry): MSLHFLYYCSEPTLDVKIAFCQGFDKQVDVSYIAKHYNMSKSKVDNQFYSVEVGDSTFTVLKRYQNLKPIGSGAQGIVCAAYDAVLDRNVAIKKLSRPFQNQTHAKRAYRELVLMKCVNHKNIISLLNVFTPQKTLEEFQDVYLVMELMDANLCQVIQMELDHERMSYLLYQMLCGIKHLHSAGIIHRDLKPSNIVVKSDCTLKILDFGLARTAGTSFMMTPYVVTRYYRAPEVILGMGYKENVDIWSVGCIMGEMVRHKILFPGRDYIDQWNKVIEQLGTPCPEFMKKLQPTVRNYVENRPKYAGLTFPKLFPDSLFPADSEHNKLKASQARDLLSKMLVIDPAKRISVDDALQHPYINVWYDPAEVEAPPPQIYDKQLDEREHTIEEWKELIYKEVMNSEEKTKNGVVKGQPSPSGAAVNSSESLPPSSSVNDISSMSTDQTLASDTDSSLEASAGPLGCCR

Compound | IC50 (JNK-3) [µM] | IC50 (hCK1ε) [µM]
Oc1cccc2ccc3c4ccc5cccc(O)c5c4oc3c12 [Compound III] | 2.8 | 
OCC(O)C(O)C(O)C(O)C(O)c1cc2c3ccc4cccc(O)c4c3oc2c2c(O)cccc12 (stereo not drawn) [Compound II] | 1.1 | 2.9
